Laboratory results published in patent US20100035926A1, “PYRAZOLE DERIVATIVES AS NON-STEROIDAL GLUCOCORTICOID RECEPTOR LIGANDS” (priority 2006, published 2010).

Legend:
Progesterone Receptor = target: T1, Progesterone Receptor (Homo sapiens, UniProt P06401); experiment: Assay for Progesterone Receptor Agonist Activity (CV-1 cells, PRb-BacMam, MMTV-BacMam); assay type: cell-based; details: at least once in this assay, read-out: progesterone receptor agonist pEC50 (converted)
T1 construct: expressed in transfected cells; host or cells: CV-1 cells transduced with PRb-BacMam and MMTV-BacMam
T1 sequence (P06401 1-933): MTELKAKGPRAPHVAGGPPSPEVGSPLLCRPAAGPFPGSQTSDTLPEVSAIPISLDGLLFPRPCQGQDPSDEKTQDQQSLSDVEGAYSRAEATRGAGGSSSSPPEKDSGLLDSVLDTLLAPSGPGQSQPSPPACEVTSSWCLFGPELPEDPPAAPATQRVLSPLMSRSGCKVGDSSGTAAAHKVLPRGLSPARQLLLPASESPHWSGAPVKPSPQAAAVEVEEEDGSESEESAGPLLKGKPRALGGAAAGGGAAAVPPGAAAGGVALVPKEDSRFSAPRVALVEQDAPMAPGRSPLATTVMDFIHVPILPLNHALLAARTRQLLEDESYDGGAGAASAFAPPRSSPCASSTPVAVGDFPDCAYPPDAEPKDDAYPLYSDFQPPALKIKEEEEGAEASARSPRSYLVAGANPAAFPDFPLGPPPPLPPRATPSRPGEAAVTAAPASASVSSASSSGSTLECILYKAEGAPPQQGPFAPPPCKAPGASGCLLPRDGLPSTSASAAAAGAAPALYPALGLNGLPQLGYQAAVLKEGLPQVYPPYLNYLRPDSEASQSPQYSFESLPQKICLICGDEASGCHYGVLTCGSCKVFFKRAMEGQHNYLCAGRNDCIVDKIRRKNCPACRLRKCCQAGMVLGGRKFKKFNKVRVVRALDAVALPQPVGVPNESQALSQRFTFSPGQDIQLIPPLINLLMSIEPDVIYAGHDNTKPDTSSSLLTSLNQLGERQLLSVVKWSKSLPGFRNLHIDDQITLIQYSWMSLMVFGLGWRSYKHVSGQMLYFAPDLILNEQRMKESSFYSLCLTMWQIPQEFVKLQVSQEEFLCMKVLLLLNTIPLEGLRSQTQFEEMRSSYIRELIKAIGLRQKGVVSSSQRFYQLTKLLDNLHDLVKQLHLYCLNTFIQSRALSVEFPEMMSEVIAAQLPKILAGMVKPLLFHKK

GR = target: T2, GR (Homo sapiens, UniProt P04150); experiment: GR Agonist Assay - MMTV Assay (A549 MMTV cells, renilla luciferase reporter); assay type: cell-based; details: 6 h, agonists, read-out: average maximum asymptote in the MMTV agonist assay
T2 construct: endogenous in cells; host or cells: A549 (human lung carcinoma, ECACC No. 86012804), stably transfected with reporter plasmids only
T2 sequence (P04150 1-777): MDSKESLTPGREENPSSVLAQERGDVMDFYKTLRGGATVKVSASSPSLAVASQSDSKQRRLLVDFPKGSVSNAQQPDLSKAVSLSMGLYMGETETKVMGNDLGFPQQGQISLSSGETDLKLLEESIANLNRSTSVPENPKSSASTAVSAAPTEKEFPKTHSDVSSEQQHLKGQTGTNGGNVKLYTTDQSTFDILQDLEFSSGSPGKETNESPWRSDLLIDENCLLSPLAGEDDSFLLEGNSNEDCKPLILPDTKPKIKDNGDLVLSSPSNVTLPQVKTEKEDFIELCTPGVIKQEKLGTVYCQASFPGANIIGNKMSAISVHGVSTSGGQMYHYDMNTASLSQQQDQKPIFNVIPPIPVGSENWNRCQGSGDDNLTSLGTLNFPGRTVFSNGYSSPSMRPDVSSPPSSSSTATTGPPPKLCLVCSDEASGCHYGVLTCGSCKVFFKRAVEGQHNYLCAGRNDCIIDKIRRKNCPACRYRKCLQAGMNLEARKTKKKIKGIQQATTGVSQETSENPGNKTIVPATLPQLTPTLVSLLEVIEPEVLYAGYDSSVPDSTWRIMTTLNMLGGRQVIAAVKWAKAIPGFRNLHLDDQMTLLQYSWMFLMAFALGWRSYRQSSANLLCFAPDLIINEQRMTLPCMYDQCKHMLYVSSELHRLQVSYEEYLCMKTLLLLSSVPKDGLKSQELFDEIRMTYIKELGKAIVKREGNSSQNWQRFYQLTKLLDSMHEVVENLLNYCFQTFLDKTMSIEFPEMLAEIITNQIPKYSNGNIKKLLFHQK
Summary of the method: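 Stably transfected A549 MMTV cells carry a GR-driven luciferase reporter. Cells at 0.1×10^6/ml in DMEM with 10% FCS and 25 mM HEPES were added to wells containing compound. After detection reagent, plates were held about 15 mins at room temperature and luminescence was read.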

| EC50 (Progesterone Receptor) | Emax (GR) | SMILES |
| --- | --- | --- |
| > 1000 nM | ≥ 40% | Nc1c(C(=O)NCC(O)(CN(CCF)C(=O)c2ccccc2)C(F)(F)F)cnn1-c1ccc(F)cc1 (racemic) [Example 1 (racemic), 5-Amino-1-(4-fluorophenyl)-N-(3,3,3-trifluoro-2-{[(2-fluoroethyl)(phenylcarbonyl)amino]methyl}-2-hydroxypropyl)-1H-pyrazole-4-carboxamide] |
| > 1000 nM | ≥ 40% | Nc1c(C(=O)NCC(O)(CN(CCF)C(=O)c2ccccc2F)C(F)(F)F)cnn1-c1ccc(F)cc1 (racemic) [Example 2 (racemic), 5-Amino-1-(4-fluorophenyl)-N-[3,3,3-trifluoro-2-([(2-fluoroethyl)[(2-fluorophenyl)carbonyl]amino]methyl)-2-hydroxypropyl]-1H-pyrazole-4-carboxamide] |
| > 1000 nM | ≥ 40% | CCN(CC(O)(CNC(=O)c1cnn(-c2ccc(F)cc2)c1N)C(F)(F)F)C(=O)c1cccc(F)c1F (racemic) [Example 5 (racemic), 5-Amino-N-(2-{[[(2,3-difluorophenyl)carbonyl](ethyl)amino]methyl}-3,3,3-trifluoro-2-hydroxypropyl)-1-(4-fluorophenyl)-1H-pyrazole-4-carboxamide] |
